The subject of one assay is MDA-MB-231. The assay is described as follows: Growth inhibition of human MDA-MB-231 cells after 72 hrs by XTT assay. It counts as functional. The conditions noted are these: MDA-MB-231, 72 h. In general terms: Formazan colour is commonly taken as a measure of viable cells.
A short description of assay [1]: Growth inhibition of human Hep3B cells after 72 hrs by XTT assay. It counts as functional, Hep 3B2.
Another assay concerns A549. Nature of the assay: Growth inhibition of human A549 cells after 72 hrs by XTT assay. In kind it is functional. The conditions noted are these: A549, 72 h.
Assay [2] can be described thus: Growth inhibition of human H1299 cells after 72 hrs by XTT assay. The following applies: NCI-H1299, 72 h. It counts as functional.
Another assay deals with MCF7. The assay is described as follows: Growth inhibition of human MCF7 cells after 72 hrs by XTT assay. In kind it is functional. The following applies: MCF7, 72 h.
The subject of another assay is HepG2. The assay is described as follows: Growth inhibition of human HepG2 cells after 72 hrs by XTT assay. The conditions noted are these: HepG2, 72 h. In kind it is functional.

In ChEMBL document CHEMBL1926664, “Synthesis and antiproliferative evaluation of 6-aryl-11-iminoindeno[1,2-c]quinoline derivatives” (2011) one finds GI50 data, which are given here for 26 molecules.

As a reminder, the GI50 is the concentration that inhibits growth by half. A high value points to less potent growth inhibition. On to `O/N=C1\c2cc(O)ccc2-c2c(-c3ccc(O)cc3)nc3ccccc3c21`, for which the GI50 in the assay with MDA-MB-231 is 8.47 µM; in assay [1] it was > 10000 nM; in the assay on A549, > 10000 nM; in assay [2], > 10 µM; with MCF7, > 10 µM; in the assay with HepG2, > 10 µM.
As to `CN(C)CCCO/N=C1\c2cc(OCCCN(C)C)ccc2-c2c(-c3ccc(O)cc3)nc3ccccc3c21`, the concentration for 50% growth inhibition (GI50) in the assay with MDA-MB-231 is 3.07 µM; in assay [1] it was 5410 nM; with A549, 2100 nM; in assay [2], 5.3 µM; in the assay on MCF7, > 10 µM; in the assay on HepG2 it was 4.96 µM.
`COc1ccc(-c2nc3ccccc3c3c2-c2ccc(OC)cc2/C3=N\OCCN2CCCCC2)cc1`: the 50% growth inhibitory concentration (GI50) in the assay with MDA-MB-231 was > 10 µM; in assay [1], 8290 nM; with A549, > 10000 nM; in assay [2], > 10 µM; in the assay with MCF7, > 10 µM; in the assay with HepG2 it was > 10 µM.
As for `COc1ccc(-c2nc3ccc(OC)cc3c3c2-c2ccc(OC)cc2/C3=N\OCCN2CCCC2)cc1`, the GI50 in the assay on MDA-MB-231 was 5.15 µM; in assay [1], 6170 nM; with A549 it was 6420 nM; in assay [2], 6.54 µM; with MCF7, 6.25 µM; with HepG2, 6.03 µM.
Consider `CN(C)CCCO/N=C1\c2cc(O)ccc2-c2c(-c3ccc(O)cc3)nc3ccccc3c21`, for which the GI50 is 0.93 µM in the assay on MDA-MB-231; 670 nM in assay [1]; 500 nM in the assay on A549; 6.94 µM in assay [2]; 6.06 µM in the assay on MCF7; 1.55 µM with HepG2.
As for `Oc1ccc2c(c1)/C(=N\OCCN1CCCC1)c1c-2c(-c2ccc(OCCN3CCCC3)cc2)nc2ccc(F)cc12`, the GI50 in the assay on MDA-MB-231 was 0.48 µM; in assay [1], 470 nM; in the assay on A549 it was 310 nM; in assay [2], 0.7 µM; in the assay with MCF7, 6.04 µM; in the assay on HepG2 it was 1.08 µM.
Turning to `COc1ccc(-c2nc3ccc(F)cc3c3c2-c2ccc(OC)cc2/C3=N\OCCCN(C)C)cc1`, the GI50 turned out to be 0.7 µM with MDA-MB-231; 660 nM in assay [1]; 910 nM in the assay on A549; 0.61 µM in assay [2]; 6.18 µM with MCF7; 5.75 µM in the assay with HepG2.
As to `O/N=C1\c2cc(O)ccc2-c2c(-c3ccc(O)cc3)nc3ccc(F)cc3c21`, the GI50 in the assay on MDA-MB-231 is 8.41 µM; in assay [1], 7600 nM; in the assay with A549, > 10000 nM; in assay [2], > 10 µM; in the assay on MCF7, 8.77 µM; with HepG2 it was > 10 µM.
On to `COc1ccc(-c2nc3ccc(OC)cc3c3c2-c2ccc(OC)cc2/C3=N\OCCCN(C)C)cc1`, for which the GI50 in the assay with MDA-MB-231 is 6.13 µM; in assay [1] it was 6490 nM; in the assay with A549 it was 6620 nM; in assay [2], 5.7 µM; in the assay on MCF7 it was 6.3 µM; in the assay with HepG2 it was 5.95 µM.
`COc1ccc(-c2nc3ccc(F)cc3c3c2-c2ccc(OC)cc2/C3=N\OCCN2CCCCC2)cc1`: the GI50 was > 10 µM in the assay on MDA-MB-231; > 10000 nM in assay [1]; > 10000 nM in the assay with A549; > 10 µM in assay [2]; > 10 µM in the assay with MCF7; > 10 µM with HepG2.
Turning to `Oc1ccc(-c2nc3ccc(F)cc3c3c2-c2ccc(O)cc2/C3=N\OCCN2CCCC2)cc1`, the GI50 is 0.68 µM with MDA-MB-231; 640 nM in assay [1]; 840 nM in the assay with A549; 6.48 µM in assay [2]; 6.26 µM in the assay on MCF7; 5.04 µM with HepG2.
`COc1ccc(-c2nc3ccccc3c3c2-c2ccc(OC)cc2/C3=N\OCCN2CCCC2)cc1`: the GI50 in the assay with MDA-MB-231 is 5.33 µM; in assay [1] it was 4680 nM; in the assay on A549, 5270 nM; in assay [2], 6.31 µM; with MCF7, 6.71 µM; in the assay on HepG2, 5.48 µM.
Regarding `Oc1ccc(-c2nc3ccccc3c3c2-c2ccc(O)cc2/C3=N\OCCN2CCCC2)cc1`, the GI50 in the assay with MDA-MB-231 was determined as 0.58 µM; in assay [1], 520 nM; in the assay with A549, 880 nM; in assay [2] it was 6.06 µM; with MCF7 it was 7.83 µM; with HepG2, 5.74 µM.
Take `CC[C@@]1(O)C(=O)OCc2c1cc1n(c2=O)Cc2cc3c(CN(C)C)c(O)ccc3nc2-1` [TOPOTECAN]: the GI50 with MDA-MB-231 was 0.078 µM; in assay [1], 220 nM; in assay [2] it was > 10 µM; with MCF7, > 10 µM.
Consider `COc1ccc(-c2nc3ccc(F)cc3c3c2-c2ccc(OC)cc2/C3=N\OCCN2CCCC2)cc1`, for which the 50% growth inhibitory concentration (GI50) came out at 5.99 µM with MDA-MB-231; 3110 nM in assay [1]; 9240 nM with A549; 3.15 µM in assay [2]; 6.36 µM in the assay with MCF7; 9.46 µM in the assay on HepG2.
As for `Oc1ccc(-c2nc3ccc(F)cc3c3c2-c2ccc(OCCN4CCCC4)cc2/C3=N\OCCN2CCCC2)cc1`, the GI50 in the assay on MDA-MB-231 amounted to 0.33 µM; in assay [1] it was 230 nM; with A549, 530 nM; in assay [2], 7.09 µM; with MCF7, 6.2 µM; in the assay on HepG2, 5.71 µM.
On to `COc1ccc(-c2nc3ccccc3c3c2-c2ccc(OC)cc2/C3=N\O)cc1`, for which the GI50 in the assay with MDA-MB-231 is > 10 µM; in assay [1], > 10000 nM; in the assay on A549, > 10000 nM; in assay [2], > 10 µM; in the assay on MCF7, > 10 µM; in the assay on HepG2 it was > 10 µM.
Consider `CN(C)CCCO/N=C1\c2cc(O)ccc2-c2c(-c3ccc(O)cc3)nc3ccc(F)cc3c21`, for which the GI50 stood at 4.74 µM with MDA-MB-231; 690 nM in assay [1]; 6460 nM in the assay with A549; 6.3 µM in assay [2]; 6.28 µM with MCF7; 6.24 µM in the assay with HepG2.
As to `CN(C)CCCO/N=C1\c2cc(OCCCN(C)C)ccc2-c2c(-c3ccc(O)cc3)nc3ccc(F)cc3c21`, the GI50 was found to be 0.67 µM with MDA-MB-231; 560 nM in assay [1]; 420 nM in the assay on A549; 0.84 µM in assay [2]; 6.25 µM in the assay on MCF7; 0.66 µM in the assay with HepG2.
For `Oc1ccc2c(c1)/C(=N\OCCN1CCCC1)c1c-2c(-c2ccc(OCCN3CCCC3)cc2)nc2ccccc12`, the GI50 with MDA-MB-231 is 0.51 µM; in assay [1] it was 920 nM; in the assay on A549, 540 nM; in assay [2], 0.57 µM; in the assay on MCF7, 5.92 µM; in the assay on HepG2, 4.11 µM.
`CCc1c2c(nc3ccc(OC(=O)N4CCC(N5CCCCC5)CC4)cc13)-c1cc3c(c(=O)n1C2)COC(=O)[C@]3(O)CC` [IRINOTECAN]: the GI50 was 9.17 µM with MDA-MB-231, > 10000 nM in the assay with A549, > 10 µM in assay [2] and > 10 µM in the assay with MCF7.
As to `COc1ccc(-c2nc3ccc(F)cc3c3c2-c2ccc(OC)cc2/C3=N\O)cc1`, the GI50 is > 10 µM with MDA-MB-231; > 10000 nM in assay [1]; > 10000 nM with A549; > 10 µM in assay [2]; > 10 µM in the assay with MCF7; > 10 µM in the assay on HepG2.
Consider `CN(C)CCCO/N=C1\c2cc(O)ccc2-c2c(-c3ccc(OCCCN(C)C)cc3)nc3ccccc3c21`, for which the GI50 is 0.63 µM in the assay with MDA-MB-231; 610 nM in assay [1]; 2030 nM in the assay on A549; 0.69 µM in assay [2]; 6.65 µM in the assay on MCF7; 3.77 µM with HepG2.
With `Oc1ccc(-c2nc3ccccc3c3c2-c2ccc(OCCN4CCCC4)cc2/C3=N\OCCN2CCCC2)cc1`, the GI50 in the assay with MDA-MB-231 worked out at 0.68 µM; in assay [1], 780 nM; in the assay on A549 it was 790 nM; in assay [2], 6.51 µM; in the assay with MCF7 it was 6.42 µM; in the assay with HepG2 it was 4.09 µM.
In the case of `COc1ccc(-c2nc3ccccc3c3c2-c2ccc(OC)cc2/C3=N\OCCCN(C)C)cc1`, the GI50 in the assay with MDA-MB-231 stood at 7.01 µM; in assay [1] it was 3140 nM; with A549, 6690 nM; in assay [2], 6.61 µM; in the assay with MCF7, 6.57 µM; in the assay with HepG2, 6.54 µM.
Consider `COc1ccc(-c2nc3ccc(OC)cc3c3c2-c2ccc(OC)cc2/C3=N\O)cc1`, for which the GI50 with MDA-MB-231 is > 10 µM; in assay [1], > 10000 nM; in the assay with A549, > 10000 nM; in assay [2] it was > 10 µM; in the assay with MCF7, > 10 µM; with HepG2, > 10 µM.
